In patent US8541407B2 (ArQule, Inc., priority 2010, dated 2013):
Where a name gives a salt, the structure may show the parent alone.

Assays:
AN3-CA = assay: MTS Assay, cell proliferation analysis (AN3-CA); format: cell-based; settings: Homo sapiens; AN3-CA cells; 72 hours; 10 Percent FBS
Procedure: (§1) Cell proliferation analysis. Cell survival was determined by the MTS assay. Briefly, cells were plated in a 96-well plate at 2,000-10,000 cells per well, cultured for 24 hours in complete growth medium, and then treated with representative compounds of the invention or combinations thereof for 72 hours. MTS was added and incubated for 4 hours, followed by assessment of cell viability by using the microplate reader at 570 nm. Data were normalized to untreated controls and analyzed.

A2780 = assay: MTS Assay, cell proliferation analysis (A2780); format: cell-based; settings: Homo sapiens; A2780 cells; 72 hours; 10 Percent FBS
Procedure: as §1

AKT1 = AKT1 (Homo sapiens (Human), UniProt P31749); assay: Inactive Akt Alpha Screen Assay; settings: non *labeled: Akt Alpha Screen assay; read-out: AKT1 biochemical assay, IC50
Chain of AKT1 (P31749 whole entry): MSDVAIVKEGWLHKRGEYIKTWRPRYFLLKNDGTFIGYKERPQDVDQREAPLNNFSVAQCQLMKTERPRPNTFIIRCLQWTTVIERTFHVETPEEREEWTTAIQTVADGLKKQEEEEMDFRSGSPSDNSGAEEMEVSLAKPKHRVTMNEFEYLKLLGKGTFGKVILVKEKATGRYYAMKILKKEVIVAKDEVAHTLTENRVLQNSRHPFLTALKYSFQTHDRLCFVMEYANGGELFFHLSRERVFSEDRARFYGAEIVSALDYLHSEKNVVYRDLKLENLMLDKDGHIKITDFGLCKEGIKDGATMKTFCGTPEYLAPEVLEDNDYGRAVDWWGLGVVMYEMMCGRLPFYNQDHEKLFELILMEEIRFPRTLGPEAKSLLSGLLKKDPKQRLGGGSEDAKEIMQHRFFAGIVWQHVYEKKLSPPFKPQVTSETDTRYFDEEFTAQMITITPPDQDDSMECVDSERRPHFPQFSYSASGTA
Summary of the method: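 AKT1 activated in situ by PDK1, MAPKAPK2, lipid vesicles and ATP, then phosphorylating biotinylated crosstide for 30 min at room temperature. Stopped with 10 mM EDTA; phosphopeptide detected by AlphaScreen using phospho-AKT substrate antibody (1:350), Protein A acceptor and streptavidin donor beads, 90 min dark, ex 640/em 570 nm.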

IGROV-1 = assay: MTS Assay, cell proliferation analysis (IGROV-1); format: cell-based; settings: Homo sapiens; IGROV-1 cells; 72 hours; 10 Percent FBS
Procedure: as §1

Row | Structure (SMILES) | IC50 (A2780) | IC50 (AKT1) | IC50 (AN3-CA) | IC50 (IGROV-1)
1 | COc1cccc(C(=O)Nc2ccc(-c3nnc4n3-c3cccnc3Nc3ccccc3-4)cc2)c1 [Example 27, N-(4-(9H-benzo[f]pyrido[2,3-b][1,2,4]triazolo[4,3-d][1,4]diazepin-3-yl)phenyl)-3-methoxybenzamide] | 10 µM | 160 nM | 25 µM | 23 µM
2 | CN(C)c1ccc(-c2nnc3n2-c2cccnc2Nc2ccccc2-3)cc1 [hydrochloride] | 17 µM | 1600 nM | – | 90 µM
3 | Cc1ccc(C(=O)Nc2ccc(-c3nnc4n3-c3cccnc3Nc3ccccc3-4)cc2)cc1 [Example 30, N-(4-(9H-benzo[f]pyrido[2,3-b][1,2,4]triazolo[4,3-d][1,4]diazepin-3-yl)phenyl)-4-methylbenzamide] | 6 µM | 100 nM | 7 µM | 28 µM
4 | ClCc1ccc(-c2nnc3n2-c2cccnc2Nc2ccccc2-3)cc1 [Example 127, 3-(4-(chloromethyl)phenyl)-9H-benzo[f]pyrido[2,3-b][1,2,4]triazolo[4,3-d][1,4]diazepine] | 9 µM | 1900 nM | – | 13 µM
5 | O=c1[nH]c2ccccc2n1C1CCN(Cc2ccc(-c3nnc4n3-c3ccccc3Nc3ccccc3-4)cc2)CC1 [Example 128, 1-(1-(4-(9H-dibenzo[b,f][1,2,4]triazolo[4,3-d][1,4]diazepin-3-yl)benzyl)piperidin-4-yl)-1H-benzo[d]imidazol-2(3H)-one] | 11 µM | 940 nM | – | > 100 µM

Further lines, with some results ahead:

Row | IC50 (A2780) | IC50 (AKT1) | Structure (SMILES) | IC50 (AN3-CA) | IC50 (IGROV-1)
6 | 31 µM | 99 nM | NC1(c2ccc(-c3nnc4n3-c3cccnc3Nc3ccccc3-4)cc2)CCC1 [Example 126, 1-(4-(9H-benzo[f]pyrido[2,3-b][1,2,4]triazolo[4,3-d][1,4]diazepin-3-yl)phenyl)cyclobutanamine] | 40 µM | 6 µM
7 | 16 µM | 130 nM | NC1(c2ccc(-c3nnc4n3-c3cccnc3Nc3ccc(Br)cc3-4)cc2)CCC1 [Example 219, 1-(4-(12-bromo-9H-benzo[f]pyrido[2,3-b][1,2,4]triazolo[4,3-d][1,4]diazepin-3-yl)phenyl)cyclobutanamine] | 45 µM | 10 µM
8 | 17 µM | 84 nM | c1ccc(-c2nnc(C3CCN(Cc4ccc(-c5nnc6n5-c5cccnc5Nc5ccccc5-6)cc4)CC3)[nH]2)nc1 [Example 63, 3-(4-((4-(5-(pyridin-2-yl)-4H-1,2,4-triazol-3-yl)piperidin-1-yl)methyl)phenyl)-9H-benzo[f]pyrido[2,3-b][1,2,4]triazolo[4,3-d][1,4]diazepine] | 34 µM | 10 µM
9 | 13 µM | 96 nM | Brc1ccc2c(c1)-c1nnc(-c3ccc(CN4CCC(c5nnc(-c6ccccn6)[nH]5)CC4)cc3)n1-c1cccnc1N2 [Example 228, 12-bromo-3-(4-((4-(5-(pyridin-2-yl)-4H-1,2,4-triazol-3-yl)piperidin-1-yl)methyl)phenyl)-9H-benzo[f]pyrido[2,3-b][1,2,4]triazolo[4,3-d][1,4]diazepine] | 56 µM | 6 µM
10 | 6 µM | 110 nM | CN(C)c1ccc(C(=O)NCc2ccc(-c3nnc4n3-c3cccnc3Nc3ccccc3-4)cc2)cc1 [Example 98, N-(4-(9H-benzo[f]pyrido[2,3-b][1,2,4]triazolo[4,3-d][1,4]diazepin-3-yl)benzyl)-4-(dimethylamino)benzamide] | 8 µM | > 100 µM
11 | 14 µM | 110 nM | O=C(Nc1ccc(-c2nnc3n2-c2cccnc2Nc2ccccc2-3)cc1)c1ccc(F)cc1 [Example 56, N-(4-(9H-benzo[f]pyrido[2,3-b][1,2,4]triazolo[4,3-d][1,4]diazepin-3-yl)phenyl)-4-fluorobenzamide] | 28 µM | 70 µM
